What was measured:
Pliss lymphosarcoma = assay: Inhibition of tumor growth in implanted tumors; type: in vivo, rats
Worker's carcinosarcoma = assay: Inhibition of tumor growth in implanted tumors; type: in vivo, mice and rats
Geren's carcinosarcoma = assay: Inhibition of tumor growth in implanted tumors; type: in vivo, mice and rats; conditions: dose 50 mg/kg
Sarcoma-45 = assay: Inhibition of tumor growth in implanted tumors; type: in vivo, rats
[1] = test system: Alveolar Cancer of the liver; assay: Inhibition of tumor growth in implanted tumors; type: in vivo, mice and rats
Leucemia P-388 = assay: Implanted leukemia, inhibition / survival; type: in vivo, mice and rats; conditions: dose 50 mg/kg
[2] = test system: Sarcoma-45 resistant to 5-fluorouracil; assay: Inhibition of growth of resistant tumour strains; type: in vivo, rats
M-1 Sarcoma = assay: Inhibition of tumor growth in implanted tumors; type: in vivo, mice and rats; conditions: dose 30 mg/kg
PC-1 = assay: Inhibition of tumor growth in implanted tumors; type: in vivo, mice and rats; conditions: dose 30 mg/kg
[3] = test system: Pliss Lymphosarcoma resistant to prospidine; assay: Inhibition of growth of resistant tumour strains; duration of life and metastasis; type: in vivo, rats; conditions: dose 30 mg/kg
Breast Cancer RMC-1 = assay: Inhibition of tumor growth in implanted tumors; type: in vivo, mice and rats; conditions: dose 30 mg/kg
[4] = test system: Sarcoma-45 resistant to prospidine; assay: Inhibition of growth of resistant tumour strains; type: in vivo, rats; conditions: dose 30 mg/kg
[5] = test system: Sarcoma-45 resistant to rubidomycin; assay: Inhibition of growth of resistant tumour strains; type: in vivo, rats; conditions: dose 30 mg/kg
[6] = test system: Pliss Lymphosarcoma resistant to rubidomycin; assay: Inhibition of growth of resistant tumour strains; type: in vivo, rats; conditions: dose 30 mg/kg
[7] = test system: Pliss Lymphosarcoma resistant to leucoeffdine; assay: Inhibition of growth of resistant tumour strains; tumor disappearance; type: in vivo, rats

SMILES	Inhibition of Tumour Growth, % - Pliss lymphosarcoma (Pliss lymphosarcoma; dose 50 mg/kg) [%]	Inhibition of Tumour Growth, % - Worker's carcinosarcoma (Worker's carcinosarcoma; dose 50 mg/kg) [%]	Inhibition of Tumour Growth, % - Geren's carcinosarcoma (Geren's carcinosarcoma) [%]	Inhibition of Tumour Growth, % - Sarcoma-45 (Sarcoma-45; dose 50 mg/kg) [%]	Inhibition of Tumour Growth, % - Alveolar Cancer of the liver ([1]; dose 50 mg/kg) [%]	Inhibition of Tumour Growth, % - Leucemia P-388 PALT (Leucemia P-388) [%]	Inhibition of Tumour Strains Growth, % - Resistant Forms - Sarcoma-45 to 5-fluorouracil ([2]; dose 50 mg/kg) [%]	Inhibition of Tumour Growth, % - Pliss lymphosarcoma (Pliss lymphosarcoma; dose 30 mg/kg) [%]	Inhibition of Tumour Growth, % - Worker's carcinosarcoma (Worker's carcinosarcoma; dose 30 mg/kg) [%]	Inhibition of Tumour Growth, % - Sarcoma-45 (Sarcoma-45; dose 30 mg/kg) [%]	Inhibition of Tumour Growth, % - M-1 Sarcoma (M-1 Sarcoma) [%]	other results
C=C1C(=O)OC2C1CCC(C)(Cl)C1(O)CC(Cl)C(C)(O)C21 (stereo not shown) [Dichlordihydroxyarglabin (3)]	29.0	63.2	71.4	70.9	51.0	92.1	70.6	–	–	–	–	–
CC1=CCC23OC2(C)CCC2C(CN(C)C)C(=O)OC2C13 (stereo not shown) [Dimethylaminoarglabin (14b), dimethylaminoarglabin]	56.0	30.0	85.1	79.0	42.0	80.1	52.1	78.2	30.0	85.1	79.9	Inhibition of Tumour Growth, % - PC-1 (PC-1): 62.1%; Inhibition of Tumour Strains Growth, % - Resistant Forms - Pliss Lymphosarcoma to prospidine [3]: 52.1%
CN(C)CC1C(=O)OC2C1CCC1(C)OC13CC1OC1(C)C23 (stereo not shown) [Dimethylaminoepoxyarglabin (15b), dimethylaminoepoxyarglabin]	64.6	43.1	31.4	58.1	38.0	51.0	11.2	–	–	–	–	–
C=C1C(=O)OC2C1CCC1(C)OC13CC1OC1(C)C23 (stereo not shown) [Epoxyarglabin (2), 1(10), 3(4)-diepoxy-guai-11(13)-en-6,12-olid]	–	–	–	–	–	–	–	72.1	36.4	88.8	78.4	Inhibition of Tumour Growth, % - Breast Cancer RMC-1 (Breast Cancer RMC-1): 59.6%; Inhibition of Tumour Growth, % - Alveolar Cancer of the liver ([1]; dose 30 mg/kg): 70.4%; Inhibition of Tumour Strains Growth, % - Resistant Forms - Sarcoma-45 to 5-fluorouracil ([2]; dose 30 mg/kg): 66.0%; Inhibition of Tumour Strains Growth, % - Resistant Forms - Sarcoma-45 to prospidine [4]: 70.4%; Inhibition of Tumour Strains Growth, % - Resistant Forms - Sarcoma-45 to rubidomycin [5]: 78.6%; Inhibition of Tumour Strains Growth, % - Resistant Forms - Pliss Lymphosarcoma to rubidomycin [6]: 78.0%; Inhibition of Tumour Strains Growth, % - Resistant Forms - Pliss Lymphosarcoma to leucoeffdine ([7]; dose 30 mg/kg): 79.8%
CN(C)CC1C(=O)OC2C1CCC1(C)OC13CC1OC1(C)C23.Cl (stereo not shown) [dimethylaminoepoxyarglabin hydrochloride]	47.0	51.4	15.6	32.4	29.1	31.2	13.2	–	–	–	–	–
NC(Cc1ccc(N(CCCl)CCCl)cc1)C(=O)O (stereo not shown) [sarcolysin, reference compound]	–	–	–	–	–	–	–	–	–	–	–	rats with complete disappearance of the tumor ([7]; leukofedin resistant Pliss' lymphosarcoma, collateral sensitivity): 60%
